Series [1] has as its system Louvain rats immunized with collagen type II. Put plainly: Rat collagen-arthritis model. The format is in vivo. Also on record: arthritic score / Arthritis Score / X-Ray Score: scale not given here. The following applies: for structural damage by blinded radiographic scores: day 28; for efficacy in comparison with methylene chloride (RB2000): rat collagen arthritis model, arthritic score; for arthritic scores in comparison to methylene chloride treated rats: rat, in vivo. Here is the method:
To assess the therapeutic potential of methylene chloride as a carbon-monoxide generating compound in this disease model, female Louvain rats weighing between 120 and 150 g were injected intradermally with 0.5 mg native chicken collagen type II solubilized in 0.1M acetic acid and emulsified in incomplete Freund's adjuvant. At the onset of disease (around day 10) animals were divided into three groups. One group was treated daily with vehicle, the second and third groups with 100 mg/kg/day and 500 mg/kg/day methylene chloride (p.o.). Severity of disease was evaluated daily using a quantification method based on standardized levels of swelling and periarticular erythema. Animals were sacrificed on day 28. […] Compared to control animals these differences were statistically significant (p<0.02).
(§1) Iodoform and bromoform were compared with methylene chloride as alternative carbon monoxide generating compounds, using the rat collagen arthritis model described in Example 6 above. Briefly, arthritis was induced in a Lovain strain of rats by immunizing the animals with Collagen Type II in Incomplete Freund's Adjuvant. Digitized radiographs were obtained at the completion of the study on day 28. Pharmacokinetics were also determined and the synovial tissue from the inflamed joints of the treated animals was harvested on Day 16 or Day 28 post-immunization. Disease systems were generally evident by Day 10.

The nature of series [2]: Blood carboxyhemoglobin after alkyl halide administration. Format: in vivo. The following applies: 100 mg/kg. Here is the method:
The ability of the trihalomethanes iodoform and bromoform to act as carbon monoxide generating compounds was assayed in comparison with methylene chloride.

The next series deals with TNF. Put plainly: Quantitative RT-PCR of cytokine mRNA in collagen-arthritis rats, TNF. The format is in vivo, rat. The following applies: Day 28. As for the experimental part: as §1
(§2) Carboxyhemoglobin levels peaked within a few hours of administration but normalized within 24 hours without cumulative pharmacokinetic consequences. Messenger RNA (mRNA) from the treated animals was purified and specific mRNA levels for cytokines TNF, IL-6, and IFN-γ were quantitated by Quantitative RT-PCR.

Another series relates to IL-6. Put plainly: Quantitative RT-PCR of cytokine mRNA in collagen-arthritis rats, IL-6. The following applies: rat, in vivo. Here is the method:
as §1, §2

Another series relates to IFN-γ. As to the kind of experiment: Quantitative RT-PCR of cytokine mRNA in collagen-arthritis rats, IFN-γ. The following applies: rat, in vivo. As for the experimental part: as §1, §2
A further series deals with Lewis rats. As to the kind of experiment: Experimental autoimmune encephalomyelitis (EAE) model of multiple sclerosis. The format is in vivo, rat. The following applies: daily oral administration from day 8 post-inoculation; scale 0 to 3. As for the experimental part: Multiple sclerosis is characterized by an autoimmune and inflammatory response directed against myelin sheath and oligodendrocytes, resulting in demyelination in the central nervous system. A well-established animal model of multiple sclerosis, experimental autoimmune encephalomyelitis (EAE), was used to examine the effect of the subject alkyl halides on this autoimmune and inflammatory condition of the central nervous system. Lewis rats were given intradermal footpad injections of 50 μg guinea pig myelin basic protein (MBP) and complete Freund's adjuvant (CFA) to induce experimental allergic encephalomyelitis (EAE). Daily oral administration of vehicle, methylene chloride or iodoform was started on day 8 post-inoculation and continued to the end of the study. Animals were monitored and scored on a 0 (normal) to 3 (complete hindlimb paralysis) scale. Daily mean±SD clinical scores are shown.

The test system of series [3] is rat liver. More on the design: species or system Sprague Dawley (SD) rats. The following applies: 2 h reperfusion, inhibitor given together with CO 300 ppm; for bile production / portal vein resistance: compared with CO alone. An excerpt: Animals. Male Sprague Dawley (SD) rats weighing between 300-350 g (Harlan Sprague Dawley, Indianapolis, Ind.) were used. Animals were fed standard rodent chow and water and libitum and cared according to guidelines approved by the American Association of Laboratory Animal Care.
Isolated perfusion liver apparatus. An isolated perfusion liver apparatus was used, as described in Amersi et al., supra, and Maulik et al., Circulation 94:398-406 (1996). In brief, syngeneic rat blood, obtained for each experiment from four donor animals, was diluted to a hematocrit of 15% with Krebs Ringer Bicarbonate Buffer (mM: NaCl 118, KH2POF 1, MgSO4 0.9, CaCl2 2.5, dextrose 11.1, and NaHCO2 25), and maintained at pH of 7.4. The perfusate was pumped from a heated reservoir that warmed the perfusate to 37° C. through silastic tubing oxygenator connected to a flow meter that measured portal vein blood flow (Cole Palmer Instruments, Chicago, Ill.). Portal pressure was kept constant via a pressure monometer connected to a T fitting in the portal vein canula. […] During the experiment, pH, temperature and oxygenation were kept constant.
Ex vivo cold ischemia model. SD rats underwent isoflourane anesthesia and systemic heparinization. […] The livers were then stored for 24 h at 4° C. in UW solution, followed by ex-vivo reperfusion for 1-2 h on an isolated perfusion liver apparatus. Portal vein blood flow, pressure, and bile production were recorded every 30 min. Blood samples were collected at 30 min intervals and serum glutamic oxaloacetic transaminase (sGOT) levels were measured using an autoanalyzer from ANTECH Diagnostics (Irvine, Calif.). At the conclusion of experiment, a portion of the liver was snap frozen for mRNA extraction/Western blot analyses; the remaining samples were fixed in formalin for H&E staining.
The role of CO—HO-1 pathway in hepatic I/R injury was studied in five major treatment groups (n=4.8 rats/group). In Group 1, the extent of I/R injury was contrasted between livers perfused ex-vivo with blood saturated with CO (300 parts per million [ppm]; 0.03% balanced air) vs. air alone (21% O2). As NO may enhance HO-1 expression (Brouard et al., supra), we then investigated a link between the two gaseous molecules in Group 2 livers, which were perfused with CO supplemented with 25 mM NG-nitro-L-arginine methyl ester hydrochloride (L-NAME; Sigma Chemicals, St. Louis, Mo.), an inducible NO inhibitor. […] To analyze as to whether exogenous CO can substitute for HO-1 in preventing I/R insult, Group 4 rats were treated 24 h prior to liver procurement with ZnPP)(1.5 mg/kg/i.p; Porphyrin Products, Logan Utah), an HO-1 inhibitor, followed by ex vivo perfusion with CO. […] Brouard et al., supra. Therefore, Group 5 rats were pre-treated 60 min before harvest with p38 MAPK inhibitor, SB203580, a pyridinyl imidazol (25 mg/kg orally; Sigma). In addition, prior to reperfursion with CO, SB203580 (20 μM) was added to the perfusate.

Series [4] concerns rat liver. Put plainly: Histologic severity of I/R injury, Banff criteria. More on the design: species or system Sprague Dawley (SD) rats. The following applies: CO plus inhibitor, 2 h perfusion; scale 1-4. An excerpt: Histology. Liver specimens were fixed in a 10% buffered formalin solution and embedded in paraffin. Sections were made at 4 μm and stained with H&E. The histologic severity of I/R injury was graded using International Banff Criteria (Int'l Banff Schema Conference Worksheet, The Third Int'l Banff Conference on Allograft Pathology, June 21-25 (1995)). Using these criteria, lobular disarray and ballooning changes are graded from 1-4, where no change is given a score of 1 and severe disarray or ballooning changes are given a score of 4.

For series [5], the system named is HO-1. Put plainly: HO-1 enzymatic activity in liver homogenates. Format: biochemical, rat. The following applies: liver after perfusion; ZnPP = 1.5 mg/kg i.p. 24 h before harvest then CO perfusion; CO = CO only. As for the experimental part: HO-1 Enzymatic Activity. Livers were homogenized on ice in a Tris-HCl lysis buffer (pH 7.4) containing 0.5% Triton X-100 and protease inhibitors. Samples were frozen in small aliquots until use. Homogenates (100 μl) were mixed with 0.8 mM NADPH, 0.8 mM glucose-6-phosphate 1.0 unit G-60P dehydrogenase, 1 mM MgCl2 and […] purified rat liver biliverdin reductase at 4° C. The reaction was initiated by the addition of hemin (final concentration 0.25 mM). The reaction mixture was incubated at 37° C. in the dark for 15 min. At the end of incubation period, any insoluble material was removed by centrifugation and supernatants were analyzed for bilirubin concentration. An extinction coefficient of 40 mM^−1 cm^−1 at A 460-530 was used to calculate the amount of bilirubin formed. Controls included naive samples in the absence of the NADPH generating system and all the ingredients of the reaction mixture in the absence of graft homogenates. Biliverdin reductase was purified from rat liver, as described in Browne and Ultrich, Mol. Pharmacol. 32:497-504 (1987).

Series [6] has as its system HO-1. As to the kind of experiment: ELISA for HO-1 protein expression in liver. Also on record: species or system rat. The following applies: ZnPP = pretreatment then CO perfusion; CO = CO only. Here is the method: ELISA for HO-1 protein expression. Livers were homogenized on ice in a Tris-HCl lysis buffer (pH 7.4) containing 0.5% Triton X-100 and protease inhibitors. Flat-bottom microtiter 96-well plates (Nunc) were coated with 7 μg/ml anti-HO-1 mAb (OSA-111, Stressgen, Canada) in PBS for 18 h at room temperature. Unbound Ab was removed by washing (wash buffer: 0.05% Tween 20 in 50 mM phosphate buffer, pH 7.5) and remaining binding sites were blocked by incubation with a 5% BSA/PBS solution (1 h). Recombinant HO-1 (SPP-730) and tissue homogenate were diluted in assay diluent (0.5% BSA/0.05% Tween 20/PBS) and incubated in anti-HO-1 mAb coated wells for 1 h at room temperature. Subsequently, plates were washed three times with wash buffer and incubated with rabbit anti-HO-1 polyclonal antibody (SPA-895, Stressgen; diluted 1:1000 in assay diluent) for 30 min at room temperature. Bound rabbit IgG was detected with a donkey anti-rabbit (gG-HRP conjugate (711-035-152, Jackson Research Laboratories; diluted 1:8000 in assay diluent). Unbound secondary Ab was removed by washing and bound HRP was detected using 1 mg/ml OPD in substrate buffer (0.1% H2O2, 0.1 M citric acid, 0.2 M Na2HPO4, pH 5.0). The color reaction was stopped with 1 M HCl and the optical density at 490 nm was measured.

Each structure is given as a SMILES string.

In the case of `IC(I)I` [iodoform], in [1] (Day 28, dose 100 mg/kg), the “Arthritis Score” value stood at 3.62 ± 0.99 and the “X-Ray Score” value is 1.50 ± 0.80. For the same molecule, in series [1] (Day 28, dose 175 mg/kg), the “Arthritis Score” value is 3.16 ± 0.99 and the “X-Ray Score” value was found to be 1.90 ± 0.64. Also, in series [1] (Day 28, dose 250 mg/kg), the “Arthritis Score” value worked out at 1.85 ± 0.91 and the “X-Ray Score” value worked out at 0.85 ± 0.45. In series [1], the “structural damage by blinded radiographic scores” value is reported as “significantly inhibited structural damage”, the “efficacy in comparison with methylene chloride (RB2000)” value is given as “superior efficacy” and the “arthritic scores in comparison to methylene chloride treated rats” value is “significantly lower”. In addition, in series [2], the “COHb level in comparison with the same amount of methylene chloride” value is “higher COHb level”. Moreover, in the series with TNF, the “mRNA levels for TNF compared to methylene chloride treated rats” value was “higher”. Also, the “mRNA levels for IL-6 compared to methylene chloride treated rats” value in the series on IL-6 was “substantially lower”. Besides, the “mRNA levels for IFN-γ compared to methylene chloride treated rats” value with IFN-γ was “substantially lower”. Also, the “clinical score / clinical signs” value in the series with Lewis rats is given as “did not display any clinical signs”.

`COC(=O)[C@@H](N)CCCN=C(N)N[N+](=O)[O-].Cl` [L-NAME, NG-nitro-L-arginine methyl ester hydrochloride]: in the series on rat liver [3], the bile production result was “increase in bile production”, the portal vein resistance result is “decrease in portal vein resistance” and the sGOT release was found to be 191±16 IU/L.

Turning to `O=C1C(Nc2ccccc2)=CC(=O)c2ncccc21` [LY-83583, 6-anilino-5,8-quinalinedone], in the series with rat liver [3], the bile production result is listed as “comparable”, the portal vein resistance result is on record as “slightly increased” and the sGOT release stood at 186±21 IU/L.

In the case of `C[S+]([O-])c1ccc(-c2nc(-c3ccncc3)c(-c3ccc(F)cc3)[nH]2)cc1` (centres unmarked) [SB203580], in the series with rat liver [3], the bile production result is on record as “significantly less bile”, the portal vein resistance entry is given as “significant increase in portal vein resistance” and the sGOT release was 352±21 IU/L.

Take `C=CC1=C(C)c2cc3[n-]c(cc4[n-]c(cc5nc(cc1n2)C(C)=C5C=C)c(C)c4CCC(=O)O)c(CCC(=O)O)c3C.[Zn+2]` [ZnPP]: in the series on rat liver [3], the bile production entry is “increased bile production”, the portal vein resistance entry is reported as “decreased portal vein resistance” and the sGOT release is given as 202±11 IU/L. The “Banff score of I/R injury” value with rat liver [4] amounted to 1.5±0.0. Also, the HO-1 enzyme activity in the series on HO-1 [5] is reported as 0.95±0.06 nmol of bilirubin/mg/protein/min. Besides, the “HO-1 protein expression in liver samples (ELISA)” value in the series on HO-1 [6] was 0.85±0.62 ng of HO-1/mg lysate.

On to `BrC(Br)Br` [bromoform], for which, in [1] (Day 28, dose 250 mg/kg), the “Arthritis Score” value is recorded as 5.5 ± 0.86 and the “X-Ray Score” value was determined as 2.75 ± 0.81. Also, in [1], the “structural damage by blinded radiographic scores” value is on record as “significantly inhibited structural damage”, the “efficacy in comparison with methylene chloride (RB2000)” value was “superior efficacy” and the “arthritic scores in comparison to methylene chloride treated rats” value is “significantly lower”. Further, the “COHb level in comparison with the same amount of methylene chloride” value in [2] was “higher COHb level”. Further, the “mRNA levels for TNF compared to methylene chloride treated rats” value in the series on TNF is on record as “higher”. For the same molecule, the “mRNA levels for IL-6 compared to methylene chloride treated rats” value in the series with IL-6 is “substantially lower”. Moreover, the “mRNA levels for IFN-γ compared to methylene chloride treated rats” value in the series on IFN-γ is given as “substantially lower”.

The values above are taken from patent publication US20040143025A1, “Carbon monoxide generating compunds for treatment of vascular, inflammatory and immune disorders” (priority 2002, published 2004).
